The test system of this assay is P388 leukemia ip, CD2F1 mice, survival T/C. The experiment in a line: NCI In Vivo Anticancer Drug Screen. Data for tumor model P388 Leukemia (intraperitoneal) in CD2F1 (CDF1) mice. As to conditions: endpoint: median survival time, higher = longer survival. The procedure, abridged: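 Mice carrying the transplanted tumor received test compound or vehicle. Survival was recorded in each group, and the value is the treated-group measurement divided by that of the vehicle-treated control group.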

Setting [1] is: dose: 60.0 mg/kg/injection, schedule: Q01DX005 (ip), vehicle: saline.
The mark [2] stands for this setting: dose: 120.0 mg/kg/injection, schedule: Q01DX005 (ip), vehicle: saline.
The mark [3] stands for this setting: dose: 240.0 mg/kg/injection, schedule: Q01DX005 (ip), vehicle: saline.
The mark [4] stands for this setting: dose: 50.0 mg/kg/injection, schedule: Q01DX009 (ip), vehicle: saline.
[5] abbreviates: dose: 100.0 mg/kg/injection, schedule: Q01DX009 (ip), vehicle: saline.
The mark [6] stands for this setting: dose: 50.0 mg/kg/injection, schedule: Q01DX009 (ip), vehicle: Klucel (hydroxypropylcellulose) (HPC).
Where [7] appears, read: dose: 100.0 mg/kg/injection, schedule: Q01DX009 (ip), vehicle: Klucel (hydroxypropylcellulose) (HPC).
Setting [8] is: dose: 200.0 mg/kg/injection, schedule: Q01DX009 (ip), vehicle: Klucel (hydroxypropylcellulose) (HPC).
[9] abbreviates: dose: 200.0 mg/kg/injection, schedule: Q01DX009 (ip), vehicle: saline.
[10] abbreviates: dose: 50.0 mg/kg/injection, schedule: Q01DX005 (ip), vehicle: saline with Tween-80.
The mark [11] stands for this setting: dose: 100.0 mg/kg/injection, schedule: Q01DX005 (ip), vehicle: saline with Tween-80.
Where [12] appears, read: dose: 200.0 mg/kg/injection, schedule: Q01DX005 (ip), vehicle: saline with Tween-80.

Several values for one entry are separate records, joined by “and”; a condition that tells them apart may be missing. Identical values can stand only once. Inconclusive results and toxic doses are left out.

For the compound `CC(=O)Nc1ccc(C(=O)N2C(=N)C(C#N)=C(O)/C2=C\c2ccc(Cl)c(Cl)c2)cc1`, the T/C under setting [1] was 100 % of control, the T/C under setting [2] was 100 % of control and the T/C under setting [3] is 103 % of control.
Regarding `Cc1ccc2nc(CN(CCN(Cc3nc4ccc(C)cc4[nH]3)Cc3nc4ccc(C)cc4[nH]3)Cc3nc4ccc(C)cc4[nH]3)[nH]c2c1`, the T/C reads like this: (dose: 0.38 mg/kg/injection, schedule: Q01DX005 (ip), vehicle: saline with Tween-80) 94 % of control; (dose: 0.75 mg/kg/injection, schedule: Q01DX005 (ip), vehicle: saline with Tween-80) 97 % of control; (dose: 1.5 mg/kg/injection, schedule: Q01DX005 (ip), vehicle: saline with Tween-80) 109 % of control; (dose: 3.0 mg/kg/injection, schedule: Q01DX005 (ip), vehicle: saline with Tween-80) 106 % of control; (dose: 3.12 mg/kg/injection, schedule: Q01DX005 (ip), vehicle: saline with Tween-80) 113 % of control.
`[N-]=[N+]=NCCOCn1ccc(=O)[nH]c1=O`: the T/C under setting [1] was 103 % of control, the T/C under setting [2] is 108 % of control and the T/C under setting [3] is 100 % of control.
`COc1ccc(/C=C2\CCn3c2nc2ccccc2c3=O)cc1`: the T/C (dose: 89.75 mg/kg/injection, schedule: Q04DX002 (ip), vehicle: Klucel (hydroxypropylcellulose) (HPC)) is 103 % of control; the T/C (dose: 179.5 mg/kg/injection, schedule: Q04DX002 (ip), vehicle: Klucel (hydroxypropylcellulose) (HPC)) was 102 % of control; the T/C (dose: 359.0 mg/kg/injection, schedule: Q04DX002 (ip), vehicle: Klucel (hydroxypropylcellulose) (HPC)) is 102 % of control.
Consider `CN1CCN(C(=O)CCSc2nc(-c3ccccc3)c(-c3ccccc3)o2)CC1`, for which the T/C runs as follows: under setting [4], 110 % of control; under setting [5], 110 % of control.
As to `O=S(=O)(c1ccc(NC(=S)NCc2ccco2)cc1)N1CCCCC1`, the T/C by setting is: under setting [6], 88 % of control; under setting [7], 93 % of control; under setting [8], 92 % of control.
Regarding `CSC(=NS(=O)(=O)c1ccc(C)cc1)SC`, the T/C is 109 % of control under setting [4], 106 % of control under setting [5] and 113 % of control under setting [9].
As for `O=C(NN1C(=O)CS(=O)(=O)C1c1ccc(F)cc1)c1ccncc1` (stereo not drawn), the T/C runs as follows: under setting [10], 98 % of control; under setting [11], 97 % of control; under setting [12], 88 % of control.
For the compound `S=c1[nH]c2ccccc2c2ccccc12`, the T/C (dose: 25.0 mg/kg/injection, schedule: Q01DX009 (ip), vehicle: Klucel (hydroxypropylcellulose) (HPC)) was 100 % of control; the T/C under setting [6] was 100 % of control; the T/C under setting [7] is 88 % of control; the T/C under setting [8] is 92 % of control.
As for `O=C(c1ccccc1)C(c1ccccc1)n1ncc2c1CCC2` (stereo not drawn), the T/C is 105 % of control (dose: 100.0 mg/kg/injection, schedule: Q04DX003 (ip), vehicle: Klucel (hydroxypropylcellulose) (HPC)); 100 % of control (dose: 200.0 mg/kg/injection, schedule: Q04DX003 (ip), vehicle: Klucel (hydroxypropylcellulose) (HPC)); 103 % of control (dose: 400.0 mg/kg/injection, schedule: Q04DX003 (ip), vehicle: Klucel (hydroxypropylcellulose) (HPC)).
For the compound `FC(F)(F)c1ccc2nc3c4ccccc4c4ccccc4c3nc2c1`, the T/C was 116 % of control under setting [4], 107 % of control under setting [5] and 101 % of control under setting [9].
As for `COC(=O)c1ccc(COc2ccc([N+](=O)[O-])cc2Cl)cc1`, the T/C reads like this: under setting [10], 100 % of control; under setting [11], 104 % of control; (dose: 100.0 mg/kg/injection, schedule: Q04DX003 (ip), vehicle: saline with Tween-80) 105 % of control; under setting [12], 104 % of control; (dose: 200.0 mg/kg/injection, schedule: Q04DX003 (ip), vehicle: saline with Tween-80) 105 % of control; (dose: 400.0 mg/kg/injection, schedule: Q04DX003 (ip), vehicle: saline with Tween-80) 103 % of control.
In the case of `OCC1OC(n2cnc3c(NO)nc(NO)nc32)C(O)C1O` (stereo not drawn), the T/C is 100 % of control (dose: 2.25 mg/kg/injection, schedule: Q01DX009 (ip), vehicle: saline); 114 % of control (dose: 4.5 mg/kg/injection, schedule: Q01DX009 (ip), vehicle: saline); 107 % of control (dose: 14.3 mg/kg/injection, schedule: Q01DX009 (ip), vehicle: saline); 114 % of control (dose: 18.0 mg/kg/injection, schedule: Q01DX009 (ip), vehicle: saline); 184 % of control (dose: 54.0 mg/kg/injection, schedule: Q01DX009 (ip), vehicle: saline).
Turning to `O=c1nc(N2CCCC2)oc2cc3ccccc3cc12`, the T/C (dose: 60.0 mg/kg/injection, schedule: Q01DX005 (ip), vehicle: Klucel (hydroxypropylcellulose) (HPC)) is 95 % of control; the T/C (dose: 120.0 mg/kg/injection, schedule: Q01DX005 (ip), vehicle: Klucel (hydroxypropylcellulose) (HPC)) was 98 % of control; the T/C (dose: 240.0 mg/kg/injection, schedule: Q01DX005 (ip), vehicle: Klucel (hydroxypropylcellulose) (HPC)) is 95 % of control.
Turning to `[N-]=[N+]=CC(=O)CCC(N)C(=O)O` (stereo not drawn), the T/C reads like this: (dose: 0.04 mg/kg/injection, schedule: Q01DX009 (ip), vehicle: saline) 121 % of control; (dose: 0.05 mg/kg/injection, schedule: Q01DX009 (ip), vehicle: saline) 158 % of control; (dose: 0.08 mg/kg/injection, schedule: Q01DX005 (ip), vehicle: saline) 118 % of control; (dose: 0.08 mg/kg/injection, schedule: Q01DX005 (iv), vehicle: saline) 109 % of control; (dose: 0.08 mg/kg/injection, schedule: Q01DX009 (ip), vehicle: saline) 155 % of control; (dose: 0.1 mg/kg/injection, schedule: Q01DX009 (ip), vehicle: saline) 178 % of control. Moreover, the T/C (dose: 0.15 mg/kg/injection, schedule: Q01DX005 (ip), vehicle: saline) is 121 % of control; the T/C (dose: 0.15 mg/kg/injection, schedule: Q01DX005 (iv), vehicle: saline) was 110 % of control; the T/C (dose: 0.15 mg/kg/injection, schedule: Q01DX009 (ip), vehicle: saline) is 161 % of control and 171 % of control; the T/C (dose: 0.2 mg/kg/injection, schedule: Q01DX009 (ip), vehicle: saline) was 206 % of control; the T/C (dose: 0.3 mg/kg/injection, schedule: Q01DX005 (iv), vehicle: saline) is 112 % of control; the T/C (dose: 0.3 mg/kg/injection, schedule: Q01DX009 (ip), vehicle: saline) is 103 % of control and 105 % of control. Further, the T/C reads like this: (dose: 0.4 mg/kg/injection, schedule: Q01DX009 (ip), vehicle: saline) 235 % of control; (dose: 0.6 mg/kg/injection, schedule: Q01DX005 (ip), vehicle: saline) 153 % of control; (dose: 0.6 mg/kg/injection, schedule: Q01DX009 (ip), vehicle: saline) 87 % of control; (dose: 0.8 mg/kg/injection, schedule: Q01DX009 (ip), vehicle: saline) 94 % of control; (dose: 1.0 mg/kg/injection, schedule: Q04DX003 (ip), vehicle: saline) 160 % of control; (dose: 2.0 mg/kg/injection, schedule: Q04DX003 (ip), vehicle: saline) 158 % of control. The T/C runs as follows: (dose: 4.0 mg/kg/injection, schedule: Q04DX003 (ip), vehicle: saline) 180 % of control; (dose: 8.0 mg/kg/injection, schedule: Q04DX003 (ip), vehicle: saline) 202 % of control; (dose: 16.0 mg/kg/injection, schedule: Q04DX003 (ip), vehicle: saline) 247 % of control; (dose: 54.0 micrograms/kg/injection, schedule: Q01DX009 (ip), vehicle: saline) 151 % of control and 158 % of control; (dose: 62.5 micrograms/kg/injection, schedule: Q01DX009 (ip), vehicle: saline) 160 % of control; (dose: 90.0 micrograms/kg/injection, schedule: Q01DX009 (ip), vehicle: saline) 166 % of control and 182 % of control. For the same compound, the T/C (dose: 125.0 micrograms/kg/injection, schedule: Q01DX009 (ip), vehicle: saline) is 190 % of control; the T/C (dose: 150.0 micrograms/kg/injection, schedule: Q01DX009 (ip), vehicle: saline) is 188 % of control and 192 % of control; the T/C (dose: 250.0 micrograms/kg/injection, schedule: Q01DX009 (ip), vehicle: saline) is 109 % of control and 208 % of control and 236 % of control; the T/C (dose: 417.0 micrograms/kg/injection, schedule: Q01DX009 (ip), vehicle: saline) was 221 % of control and 90 % of control; the T/C (dose: 500.0 micrograms/kg/injection, schedule: Q01DX009 (ip), vehicle: saline) is 94 % of control.

The record behind these values is PubChem BioAssay AID330 (DTP/NCI, 2004).
